Experimental findings from patent EP2250163B1, “HEPATITIS C VIRUS INHIBITORS” (Bristol-Myers Squibb Company, priority 2008, dated 2009) are described below.

This assay has as its system HCV 1b-377-neo replicon cells. Kind of assay: HCV replicon assay, wild-type cells. In kind it is cell-based. Particulars: Hepatitis C virus, against the HCV 1b genotype, read-out: EC50 Range. How it is done: An HCV Replion assay was utilized in the present disclosure, and was prepared, conducted and validated as described in commonly owned PCT/US2006/022197 and in O'Boyle et al. Antimicrob Agents Chemother. 2005 Apr;49(4):1346-53.
HCV 1b-377-neo replicon cells were used to test the currently described compound series as well as cells resistant to compound A due to a Y2065H mutation in NS5A (described in application PCT/US2006/022197). The compounds tested were determined to have more than 10-fold less inhibitory activity on cells resistant to compound A than wild-type cells indicating a related mechanism of action between the two compound series. Thus, the compounds of the present disclosure can be effective to inhibit the function of the HCV NS5A protein and are understood to be as effective in combinations as previously described in application PCT/US2006/022197 and commonly owned WO/04014852. Further, the compounds of the present disclosure can be effective against the HCV 1b genotype. It should also be understood that the compounds of the present disclosure can inhibit multiple genotypes of HCV. […] In one embodiment compounds of the present disclosure are active against the 1a, 1b, 2a, 2b, 3a, 4a, and 5a genotypes.

By EC50 is commonly meant the concentration that produces a half-maximal response. As for `COCC[C@H](NC(=O)OC)C(=O)N[C@H](c1nc(-c2ccc(-c3ccc(-c4c[nH]c([C@@H]5CCCN5C(=O)[C@H](CCOC)NC(=O)OC)n4)cc3)cc2)c[nH]1)C(C)C` [Example R20, methyl ((1S)-3-methoxy-1-(((2S)-2-(4-(4'-(2-((1S)-1-((N-(methoxycarbonyl)-O-methyl-L-homoseryl)amino)-2-methylpropyl)-1H-imidazol-4-yl)-4-biphenylyl)-1H-imidazol-2-yl)-1-pyrrolidinyl)carbonyl)propyl)carbamate], the EC50 fell in the range of 1 to 999 pM.

`COC(=O)N[C@H](C(=O)Nc1ncc(-c2ccc(-c3ccc(-c4cnc([C@@H]5CCCN5C(=O)[C@@H](NC(=O)OC)C(C)C)[nH]4)cc3)cc2)[nH]1)C(C)C` [Example R33, (S)-2-methoxycarbonylamino-N-(5-(4'-(2-((S)-1-((S)-2-methoxycarbonylamino-3-methylbutanoyl)pyrrolidin-2-yl)-1H-imidazol-5-yl)biphenyl-4-yl)-1H-imidazol-2-yl)-3-methylbutanamide]: the EC50 is 1000 to 99000 pM.
